Experimental data from US4409210A, “Antibiotic compound” (priority 1982, dated 1983).
Converted amounts (≈) assume the structure as drawn. *1 amine or outer side, *2 acyl side, *3 side chain or, on linkers, in order; H or OH if unused. Where a SMILES comes first, the peptide text is derived from it. Bridges are numbered along the chain shown (N, C = ends). [ ]: non-standard residue; d: D form. ξ: configuration not given here. X2 = CCCCCCCCCCCC(CC(=O)[*:1])O[*:2]; ξAsp(3ξ-OH) = NC(C(=O)O)C(O)C(=O)O; X1 = O=C(C1C(O)CCN1[*:1])[*:2]

Legend:
Type in all cases: cell-based
[1] = test system: Staphylococcus aureus A20394; experiment: MIC, serial two-fold dilution method (aerobic); details: Staphylococcus aureus A20394, Mueller-Hinton agar, inoculum 10^4
[2] = test system: Staphylococcus aureus BX-1633; experiment: MIC, serial two-fold dilution method (aerobic); details: Staphylococcus aureus BX-1633, Mueller-Hinton agar, inoculum 10^4
[3] = test system: Staphylococcus aureus Smith; experiment: MIC, serial two-fold dilution method (aerobic); details: Staphylococcus aureus Smith, Mueller-Hinton agar, inoculum 10^4
[4] = test system: Bacteroides ovatus A22400; experiment: MIC, serial two-fold dilution method (anaerobic); details: Bacteroides ovatus A22400, GAM agar medium, inoculum 10^7-10^8
[5] = test system: Bacteroides fragilis CUH-24; experiment: MIC, serial two-fold dilution method (anaerobic); details: Bacteroides fragilis CUH-24, GAM agar medium, inoculum 10^7-10^8
Proteus mirabilis A9554 = experiment: MIC, serial two-fold dilution method (aerobic); details: Proteus mirabilis A9554, Mueller-Hinton agar, inoculum 10^4
[6] = test system: Klebsiella pneumoniae D-11; experiment: MIC, serial two-fold dilution method (aerobic); details: Klebsiella pneumoniae D-11, Mueller-Hinton agar, inoculum 10^4
[7] = test system: Clostridium cylindrosporum A9562; experiment: MIC, serial two-fold dilution method (anaerobic); details: Clostridium cylindrosporum A9562, GAM agar medium, inoculum 10^7-10^8
[8] = test system: Staphylococcus aureus 209P; experiment: MIC, serial two-fold dilution method (aerobic); details: Staphylococcus aureus 209P, Mueller-Hinton agar, inoculum 10^4
[9] = test system: Propionibacterium acnes A21953; experiment: MIC, serial two-fold dilution method (anaerobic); details: Propionibacterium acnes A21953, GAM agar medium, inoculum 10^7-10^8
[10] = test system: Staphylococcus aureus A22421; experiment: MIC, serial two-fold dilution method (aerobic); details: Staphylococcus aureus A22421, Mueller-Hinton agar, inoculum 10^4
[11] = test system: Fusobacterium nucleatum A21906; experiment: MIC, serial two-fold dilution method (anaerobic); details: Fusobacterium nucleatum A21906, GAM agar medium, inoculum 10^7-10^8
[12] = test system: Bacillus anthracis IID-115; experiment: microbe, parasite or virus in culture; details: for minimum inhibitory concentration (MIC): Bacillus anthracis IID-115, Mueller-Hinton agar, inoculum 10^4
[13] = test system: Peptococcus magnas A21676; experiment: MIC, serial two-fold dilution method (anaerobic); details: Peptococcus magnas A21676, GAM agar medium, inoculum 10^7-10^8
[14] = test system: Clostridium perfringens A22787; experiment: microbe, parasite or virus in culture; details: for minimum inhibitory concentration (MIC): Clostridium perfringens A22787, GAM agar medium, inoculum 10^7-10^8
[15] = test system: Bacteroides fragilis A20926; experiment: MIC, serial two-fold dilution method (anaerobic); details: Bacteroides fragilis A20926, GAM agar medium, inoculum 10^7-10^8
Micrococcus flavus D-12 = experiment: MIC, serial two-fold dilution method (aerobic); details: Micrococcus flavus D-12, Mueller-Hinton agar, inoculum 10^4
[16] = test system: Bacteroides fragilis A21900; experiment: MIC, serial two-fold dilution method (anaerobic); details: Bacteroides fragilis A21900, GAM agar medium, inoculum 10^7-10^8
[17] = test system: Peptostreptococcus anaerobius A21905; experiment: MIC, serial two-fold dilution method (anaerobic); details: Peptostreptococcus anaerobius A21905, GAM agar medium, inoculum 10^7-10^8
[18] = test system: Clostridium acidiurici A9560; experiment: MIC, serial two-fold dilution method (anaerobic); details: Clostridium acidiurici A9560, GAM agar medium, inoculum 10^7-10^8
[19] = test system: Fusobacterium varium ATCC 8501; experiment: MIC, serial two-fold dilution method (anaerobic); details: Fusobacterium varium ATCC 8501, GAM agar medium, inoculum 10^7-10^8
[20] = test system: Bacillus subtilis ATCC 6633; experiment: MIC, serial two-fold dilution method (aerobic); details: Bacillus subtilis ATCC 6633, Mueller-Hinton agar, inoculum 10^4
[21] = test system: Propionibacterium acnes A21933; experiment: MIC, serial two-fold dilution method (anaerobic); details: Propionibacterium acnes A21933, GAM agar medium, inoculum 10^7-10^8
Sarcina lutea PCI-1001 = experiment: MIC, serial two-fold dilution method (aerobic); details: Sarcina lutea PCI-1001, Mueller-Hinton agar, inoculum 10^4
[22] = test system: Clostridium ramosum A21970; experiment: MIC, serial two-fold dilution method (anaerobic); details: Clostridium ramosum A21970, GAM agar medium, inoculum 10^7-10^8
[23] = test system: Pseudomonas aeruginosa D-113; experiment: MIC, serial two-fold dilution method (aerobic); details: Pseudomonas aeruginosa D-113, Mueller-Hinton agar, inoculum 10^4
[24] = read-out: minimum inhibitory concentration (MIC)
[25] = Cutibacterium acnes, read-out: minimum inhibitory concentration (MIC)

CCCCCCCCCCCC1CC(=O)N2CCCC2C(=O)NC(CO)C(=O)N2CCCC2C(=O)NC(CCCNC(=N)N)C(=O)NC(C(O)C(=O)O)C(=O)NC(CO)C(=O)N2CCC(O)C2C(=O)NC(C(O)C(=O)O)C(=O)O1 (stereo not drawn) [Bu-2517] (PSPR[ξAsp(3ξ-OH)]S[X1][ξAsp(3ξ-OH)]; linker N-C via X2; configuration not given here)
minimum inhibitory concentration (MIC) [1]: 1.6 µg/mL (≈ 1.42 µM) | minimum inhibitory concentration (MIC) [2]: 1.6 µg/mL (≈ 1.42 µM) | minimum inhibitory concentration (MIC) [3]: 1.6 µg/mL (≈ 1.42 µM) | minimum inhibitory concentration (MIC) [4]: > 100 µg/mL | minimum inhibitory concentration (MIC) [5]: > 100 µg/mL | minimum inhibitory concentration (MIC) (Proteus mirabilis A9554): > 100 µg/mL | minimum inhibitory concentration (MIC) [6]: > 100 µg/mL | minimum inhibitory concentration (MIC) [7]: 1.6 µg/mL (≈ 1.42 µM) | minimum inhibitory concentration (MIC) [8]: 1.6 µg/mL (≈ 1.42 µM) | minimum inhibitory concentration (MIC) [9]: 6.3 µg/mL (≈ 5.59 µM) | minimum inhibitory concentration (MIC) [10]: 0.8 µg/mL (≈ 0.71 µM) | minimum inhibitory concentration (MIC) [11]: 12.5 µg/mL (≈ 11.1 µM) | minimum inhibitory concentration (MIC) [12]: 0.8 µg/mL (≈ 0.71 µM) | minimum inhibitory concentration (MIC) [13]: 1.6 µg/mL (≈ 1.42 µM) | minimum inhibitory concentration (MIC) [14]: 3.1 µg/mL (≈ 2.75 µM) | minimum inhibitory concentration (MIC) [15]: 25 µg/mL (≈ 22.2 µM) | minimum inhibitory concentration (MIC) (Micrococcus flavus D-12): < 0.05 µg/mL | minimum inhibitory concentration (MIC) [16]: 6.3 µg/mL (≈ 5.59 µM) | minimum inhibitory concentration (MIC) [17]: 0.8 µg/mL (≈ 0.71 µM) | minimum inhibitory concentration (MIC) [18]: 1.6 µg/mL (≈ 1.42 µM) | minimum inhibitory concentration (MIC) [19]: 50 µg/mL (≈ 44.4 µM) | minimum inhibitory concentration (MIC) [20]: 0.8 µg/mL (≈ 0.71 µM) | minimum inhibitory concentration (MIC) [21]: 1.6 µg/mL (≈ 1.42 µM) | minimum inhibitory concentration (MIC) (Sarcina lutea PCI-1001): < 0.05 µg/mL | minimum inhibitory concentration (MIC) [22]: 1.6 µg/mL (≈ 1.42 µM) | minimum inhibitory concentration (MIC) [23]: > 100 µg/mL

O=C(N[C@H](CO)[C@H](O)c1ccc([N+](=O)[O-])cc1)C(Cl)Cl [Chloramphenicol]
MIC [1, 24]: 50 µg/mL (≈ 155 µM) | MIC ([2]; BX1633, read-out: minimum inhibitory concentration (MIC)): 6.3 µg/mL (≈ 19.5 µM) | MIC [3, 24]: 3.1 µg/mL (≈ 9.59 µM) | MIC [4, 24]: 1.6 µg/mL (≈ 4.95 µM) | MIC ([5]; CUH24, read-out: minimum inhibitory concentration (MIC)): 1.6 µg/mL (≈ 4.95 µM) | MIC (Proteus mirabilis A9554; [24]): 12.5 µg/mL (≈ 38.7 µM) | MIC ([6]; D11, read-out: minimum inhibitory concentration (MIC)): 1.6 µg/mL (≈ 4.95 µM) | MIC [7, 24]: 6.3 µg/mL (≈ 19.5 µM) | MIC [8, 24]: 3.1 µg/mL (≈ 9.59 µM) | MIC [9, 25]: 1.6 µg/mL (≈ 4.95 µM) | MIC [10, 24]: 6.3 µg/mL (≈ 19.5 µM) | MIC [11, 24]: 6.3 µg/mL (≈ 19.5 µM) | MIC ([12]; Bacillus anthracis, IID115, read-out: minimum inhibitory concentration (MIC)): 3.1 µg/mL (≈ 9.59 µM) | MIC [13, 24]: 1.6 µg/mL (≈ 4.95 µM) | MIC ([14]; Clostridium perfringens, A22787, read-out: minimum inhibitory concentration (MIC)): 6.3 µg/mL (≈ 19.5 µM) | MIC [15, 24]: 3.1 µg/mL (≈ 9.59 µM) | MIC (Micrococcus flavus D-12; D12, read-out: minimum inhibitory concentration (MIC)): 1.6 µg/mL (≈ 4.95 µM) | MIC [16, 24]: 3.1 µg/mL (≈ 9.59 µM) | MIC [17, 24]: 1.6 µg/mL (≈ 4.95 µM) | MIC ([18]; Gottschalkia acidurici, read-out: minimum inhibitory concentration (MIC)): 6.3 µg/mL (≈ 19.5 µM) | MIC ([19]; ATCC8501, read-out: minimum inhibitory concentration (MIC)): 6.3 µg/mL (≈ 19.5 µM) | MIC ([20]; ATCC6633, read-out: minimum inhibitory concentration (MIC)): 3.1 µg/mL (≈ 9.59 µM) | MIC [21, 25]: 3.1 µg/mL (≈ 9.59 µM) | MIC (Sarcina lutea PCI-1001; Micrococcus luteus, PCI1001, read-out: minimum inhibitory concentration (MIC)): 1.6 µg/mL (≈ 4.95 µM) | MIC ([22]; Thomasclavelia ramosa, read-out: minimum inhibitory concentration (MIC)): 6.3 µg/mL (≈ 19.5 µM) | MIC ([23]; D113, read-out: minimum inhibitory concentration (MIC)): > 100 µg/mL

Amphomycin
minimum inhibitory concentration (MIC) [1]: 3.1 µg/mL | minimum inhibitory concentration (MIC) [2]: 3.1 µg/mL | minimum inhibitory concentration (MIC) [3]: 3.1 µg/mL | minimum inhibitory concentration (MIC) [4]: > 100 µg/mL | minimum inhibitory concentration (MIC) [5]: > 100 µg/mL | minimum inhibitory concentration (MIC) (Proteus mirabilis A9554): > 100 µg/mL | minimum inhibitory concentration (MIC) [6]: > 100 µg/mL | minimum inhibitory concentration (MIC) [7]: 25 µg/mL | minimum inhibitory concentration (MIC) [8]: 3.1 µg/mL | minimum inhibitory concentration (MIC) [9]: 6.3 µg/mL | minimum inhibitory concentration (MIC) [10]: 3.1 µg/mL | minimum inhibitory concentration (MIC) [11]: 6.3 µg/mL | minimum inhibitory concentration (MIC) [12]: 0.8 µg/mL | minimum inhibitory concentration (MIC) [13]: 6.3 µg/mL | minimum inhibitory concentration (MIC) [14]: 12.5 µg/mL | minimum inhibitory concentration (MIC) [15]: 50 µg/mL | minimum inhibitory concentration (MIC) (Micrococcus flavus D-12): 0.4 µg/mL | minimum inhibitory concentration (MIC) [16]: 25 µg/mL | minimum inhibitory concentration (MIC) [17]: 3.1 µg/mL | minimum inhibitory concentration (MIC) [18]: 3.1 µg/mL | minimum inhibitory concentration (MIC) [19]: 25 µg/mL | minimum inhibitory concentration (MIC) [20]: 1.6 µg/mL | minimum inhibitory concentration (MIC) [21]: 3.1 µg/mL | minimum inhibitory concentration (MIC) (Sarcina lutea PCI-1001): 0.8 µg/mL | minimum inhibitory concentration (MIC) [22]: 25 µg/mL | minimum inhibitory concentration (MIC) [23]: > 100 µg/mL
